Source: PubChem BioAssay (NCI)
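Each compound was tested at five concentrations against cells in 96-well plates for 48 hours. TGI: total growth inhibition.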

What was measured:
Test in all cases: NCI tumour cell line growth inhibition, 48 h
NCI/ADR-RES ovarian = test system: NCI/ADR-RES ovarian
RXF 393 renal = test system: RXF 393 renal
OVCAR-5 ovarian = test system: OVCAR-5 ovarian
RPMI-8226 leukemia = test system: RPMI-8226 leukemia
OVCAR-8 ovarian = test system: OVCAR-8 ovarian
HOP-62 NSCLC = test system: HOP-62 NSCLC
SF-539 CNS = test system: SF-539 CNS
T-47D breast = test system: T-47D breast
ACHN renal = test system: ACHN renal
CCRF-CEM leukemia = test system: CCRF-CEM leukemia
IGROV1 ovarian = test system: IGROV1 ovarian
NCI-H522 lung = test system: NCI-H522 lung
EKVX NSCLC = test system: EKVX NSCLC
SW-620 colon = test system: SW-620 colon
PC-3 prostate = test system: PC-3 prostate
TK-10 renal = test system: TK-10 renal
CAKI-1 renal = test system: CAKI-1 renal
UACC-257 melanoma = test system: UACC-257 melanoma
U251 CNS = test system: U251 CNS
MOLT-4 leukemia = test system: MOLT-4 leukemia
HT29 colon = test system: HT29 colon
DU-145 prostate = test system: DU-145 prostate
SR leukemia = test system: SR leukemia
MCF7 breast = test system: MCF7 breast
K-562 leukemia = test system: K-562 leukemia
OVCAR-3 ovarian = test system: OVCAR-3 ovarian
MALME-3M melanoma = test system: MALME-3M melanoma
SN12C renal = test system: SN12C renal
HCC-2998 colon = test system: HCC-2998 colon
SK-MEL-5 melanoma = test system: SK-MEL-5 melanoma
COLO 205 colon = test system: COLO 205 colon
MDA-MB-435 = test system: MDA-MB-435
A498 renal = test system: A498 renal
HS 578T breast = test system: HS 578T breast
M14 melanoma = test system: M14 melanoma
NCI-H226 lung = test system: NCI-H226 lung
A549 NSCLC = test system: A549 NSCLC
UO-31 renal = test system: UO-31 renal
NCI-H460 lung = test system: NCI-H460 lung
OVCAR-4 ovarian = test system: OVCAR-4 ovarian
NCI-H23 lung = test system: NCI-H23 lung
SK-OV-3 ovarian = test system: SK-OV-3 ovarian
SNB-75 CNS = test system: SNB-75 CNS
SF-268 CNS = test system: SF-268 CNS
UACC-62 melanoma = test system: UACC-62 melanoma
HCT-15 colon = test system: HCT-15 colon
786-0 renal = test system: 786-0 renal
SF-295 CNS = test system: SF-295 CNS
MDA-N = test system: MDA-N
KM12 colon = test system: KM12 colon
SK-MEL-28 melanoma = test system: SK-MEL-28 melanoma
HCT-116 colon = test system: HCT-116 colon
HOP-92 NSCLC = test system: HOP-92 NSCLC
HL-60(TB) leukemia = test system: HL-60(TB) leukemia
LOX IMVI melanoma = test system: LOX IMVI melanoma
SNB-19 CNS = test system: SNB-19 CNS
MDA-MB-231 breast = test system: MDA-MB-231 breast
SK-MEL-2 melanoma = test system: SK-MEL-2 melanoma

CN(C)c1nc(=NCc2ccccc2)ss1
TGI (NCI/ADR-RES ovarian): > 10 µM
TGI (RXF 393 renal): > 10 µM
TGI (OVCAR-5 ovarian): > 10 µM
TGI (RPMI-8226 leukemia): > 10 µM
TGI (OVCAR-8 ovarian): > 10 µM
TGI (HOP-62 NSCLC): > 10 µM
TGI (SF-539 CNS): > 10 µM
TGI (T-47D breast): > 10 µM
TGI (ACHN renal): > 10 µM
TGI (CCRF-CEM leukemia): 4.66 µM
TGI (IGROV1 ovarian): > 10 µM
TGI (NCI-H522 lung): > 10 µM
TGI (EKVX NSCLC): > 10 µM
TGI (SW-620 colon): > 10 µM
TGI (PC-3 prostate): > 10 µM
TGI (TK-10 renal): > 10 µM
TGI (CAKI-1 renal): > 10 µM
TGI (UACC-257 melanoma): > 10 µM
TGI (U251 CNS): > 10 µM
TGI (MOLT-4 leukemia): > 6.19 µM
TGI (HT29 colon): > 10 µM
TGI (DU-145 prostate): > 10 µM
TGI (SR leukemia): 6.37 µM
TGI (MCF7 breast): > 10 µM
TGI (K-562 leukemia): > 10 µM
TGI (OVCAR-3 ovarian): > 10 µM
TGI (MALME-3M melanoma): > 10 µM
TGI (SN12C renal): > 10 µM
TGI (HCC-2998 colon): > 10 µM
TGI (SK-MEL-5 melanoma): > 10 µM
TGI (COLO 205 colon): > 10 µM
TGI (MDA-MB-435): > 10 µM
TGI (A498 renal): > 10 µM
TGI (HS 578T breast): > 10 µM
TGI (M14 melanoma): > 10 µM
TGI (NCI-H226 lung): > 10 µM
TGI (A549 NSCLC): > 10 µM
TGI (UO-31 renal): > 10 µM
TGI (NCI-H460 lung): > 10 µM
TGI (OVCAR-4 ovarian): > 10 µM
TGI (NCI-H23 lung): > 10 µM
TGI (SK-OV-3 ovarian): > 10 µM
TGI (SNB-75 CNS): > 10 µM
TGI (SF-268 CNS): > 10 µM
TGI (UACC-62 melanoma): > 10 µM
TGI (HCT-15 colon): > 10 µM
TGI (786-0 renal): > 10 µM
TGI (SF-295 CNS): > 10 µM
TGI (MDA-N): > 10 µM
TGI (KM12 colon): > 10 µM
TGI (SK-MEL-28 melanoma): > 10 µM
TGI (HCT-116 colon): > 10 µM
TGI (HOP-92 NSCLC): > 10 µM
TGI (HL-60(TB) leukemia): > 8.45 µM
TGI (LOX IMVI melanoma): > 10 µM
TGI (SNB-19 CNS): > 10 µM
TGI (MDA-MB-231 breast): > 10 µM

CO[C@]12CC(=O)C3(C(C[C@H]4CC5CC=C6C[C@@H](OC(C)=O)CC[C@]6(OC(C)=O)C5C[C@@]43C)C1)C1C[C@H]3[C@@H]4CC=C5C[C@@H](OC(C)=O)CC[C@]5(OC(C)=O)[C@H]4CC[C@]3(C)C12 (stereo partly drawn)
TGI (NCI/ADR-RES ovarian): 51.3 µM
TGI (OVCAR-5 ovarian): 43.5 µM
TGI (RPMI-8226 leukemia): > 100 µM
TGI (OVCAR-8 ovarian): > 100 µM
TGI (HOP-62 NSCLC): 37.9 µM
TGI (SF-539 CNS): 37.2 µM
TGI (T-47D breast): 33.4 µM
TGI (ACHN renal): > 100 µM
TGI (CCRF-CEM leukemia): > 100 µM
TGI (IGROV1 ovarian): 42.8 µM
TGI (NCI-H522 lung): 31.7 µM
TGI (EKVX NSCLC): 54.9 µM
TGI (SW-620 colon): > 100 µM
TGI (PC-3 prostate): > 100 µM
TGI (TK-10 renal): > 100 µM
TGI (CAKI-1 renal): 34.3 µM
TGI (UACC-257 melanoma): > 100 µM
TGI (U251 CNS): > 100 µM
TGI (MOLT-4 leukemia): 63.3 µM
TGI (HT29 colon): 29.5 µM
TGI (DU-145 prostate): 41.4 µM
TGI (SR leukemia): > 100 µM
TGI (MCF7 breast): > 100 µM
TGI (K-562 leukemia): > 100 µM
TGI (OVCAR-3 ovarian): 56.4 µM
TGI (MALME-3M melanoma): 35 µM
TGI (SN12C renal): 29.8 µM
TGI (SK-MEL-2 melanoma): 41.1 µM
TGI (HCC-2998 colon): 41.6 µM
TGI (SK-MEL-5 melanoma): 14.7 µM
TGI (COLO 205 colon): 12.7 µM
TGI (MDA-MB-435): > 100 µM
TGI (A498 renal): 66.1 µM
TGI (HS 578T breast): 88.9 µM
TGI (M14 melanoma): 47.2 µM
TGI (A549 NSCLC): > 100 µM
TGI (UO-31 renal): 52.6 µM
TGI (NCI-H460 lung): 47.8 µM
TGI (OVCAR-4 ovarian): 24.4 µM
TGI (NCI-H23 lung): 39 µM
TGI (SK-OV-3 ovarian): > 100 µM
TGI (SNB-75 CNS): 94.2 µM
TGI (SF-268 CNS): > 100 µM
TGI (UACC-62 melanoma): 79 µM
TGI (HCT-15 colon): > 100 µM
TGI (786-0 renal): > 100 µM
TGI (SF-295 CNS): 54 µM
TGI (MDA-N): 30.6 µM
TGI (KM12 colon): 54.3 µM
TGI (SK-MEL-28 melanoma): > 100 µM
TGI (HCT-116 colon): > 100 µM
TGI (HOP-92 NSCLC): > 100 µM
TGI (HL-60(TB) leukemia): > 100 µM
TGI (LOX IMVI melanoma): 53.4 µM
TGI (SNB-19 CNS): 63.6 µM
TGI (MDA-MB-231 breast): 30.2 µM
